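Values below derive from 48-hour exposures of cells grown in 96-well plates, with endpoints linearly interpolated between the two concentrations bracketing the appropriate inhibition level. GI50 = concentration required for 50% inhibition of growth.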 The source made the active and inactive calls. Cut-off read from the data, not from the text of the source: active = GI50 up to about 1.1 µM and inactive = higher.
Columns and labels:
Test in all cases: DTP human tumour cell line panel, 48 h
[1] = tested on: NCI-H460
[2] = tested on: LOX IMVI
[3] = tested on: U-251
[4] = tested on: HL-60
[5] = tested on: RPMI-8226
[6] = tested on: RXF 393
[7] = tested on: Hs-578T
[8] = tested on: OVCAR-8
[9] = tested on: OVCAR-4
[10] = tested on: 786-0
[11] = tested on: SW-620
[12] = tested on: IGROV-1
[13] = tested on: CCRF-CEM
[14] = tested on: HCC 2998
[15] = tested on: SNB-75
[16] = tested on: UO-31
[17] = tested on: MDA-MB-435
[18] = tested on: MDA-MB-231
[19] = tested on: SF-539
[20] = tested on: Malme-3M

Clc1ccc(-c2nnc(C34CC5CC(CC(C5)C3)C4)o2)cc1
GI50 [1]: > 100000 nM (inactive)
GI50 [2]: > 100000 nM (inactive)
GI50 [3]: > 100000 nM (inactive)
GI50 [4]: > 100000 nM (inactive)
GI50 [5]: > 100000 nM (inactive)
GI50 [6]: > 100000 nM (inactive)
GI50 [7]: > 100000 nM (inactive)
GI50 [8]: > 100000 nM (inactive)
GI50 [9]: > 100000 nM (inactive)
GI50 [10]: > 100000 nM (inactive)
GI50 [11]: > 100000 nM (inactive)
GI50 [12]: > 100000 nM (inactive)
GI50 [13]: > 100000 nM (inactive)
GI50 [14]: > 100000 nM (inactive)
GI50 [15]: > 100000 nM (inactive)
GI50 [16]: 3780 nM (inactive)
GI50 [17]: > 100000 nM (inactive)
GI50 [18]: > 100000 nM (inactive)
GI50 [19]: > 100000 nM (inactive)
GI50 [20]: > 100000 nM (inactive)

COc1ccc(C[C@H]2NC[C@H](O)[C@H]2OC(C)=O)cc1 [ANISOMYCIN]
GI50 [1]: 16.9 nM (active)
GI50 [2]: 13.1 nM (active)
GI50 [3]: 30.9 nM (active)
GI50 [4]: 10.4 nM (active)
GI50 [5]: 24.3 nM (active)
GI50 [6]: 48.3 nM (active)
GI50 [7]: 10 nM (active)
GI50 [8]: < 16.8 nM (active)
GI50 [9]: 19.4 nM (active)
GI50 [10]: 18 nM (active)
GI50 [11]: 16.4 nM (active)
GI50 [12]: 23.4 nM (active)
GI50 [13]: < 12.2 nM (active)
GI50 [14]: 22.9 nM (active)
GI50 [15]: < 10.6 nM (active)
GI50 [16]: 40.4 nM (active)
GI50 [17]: 25.9 nM (active)
GI50 [18]: 15.9 nM (active)
GI50 [19]: 21.3 nM (active)
GI50 [20]: 55.2 nM (active)

CC(=O)O[C@@H]1CO[C@H]2O[C@H]3[C@@H](C(C=O)=C[C@H](O)[C@@H]4C5=C(C(C)C)CC[C@]5(C)CC[C@@]34C)[C@@]2(O)C1=O [STRIATIN E]
GI50 [1]: 255 nM (active)
GI50 [2]: 277 nM (active)
GI50 [3]: 175 nM (active)
GI50 [4]: 17.5 nM (active)
GI50 [5]: 59.2 nM (active)
GI50 [6]: 106 nM (active)
GI50 [7]: 221 nM (active)
GI50 [8]: 130 nM (active)
GI50 [9]: 241 nM (active)
GI50 [10]: 112 nM (active)
GI50 [11]: 49.9 nM (active)
GI50 [12]: 219 nM (active)
GI50 [13]: < 27.1 nM (active)
GI50 [14]: 519 nM (active)
GI50 [15]: 73.6 nM (active)
GI50 [16]: 241 nM (active)
GI50 [17]: 174 nM (active)
GI50 [18]: 184 nM (active)
GI50 [19]: 177 nM (active)
GI50 [20]: 177 nM (active)

Source: ChEMBL document CHEMBL1201862, “PubChem BioAssay data set” (2004)
